Laboratory results from BindingDB's records for doi:10.1021/jm00018a023 (Upjohn, 1995).

Target: T1, Dimer of Gag-Pol polyprotein [489-587] (Human immunodeficiency virus 1, UniProt P12497)
T1 construct: 489-587
Assay: Protease Inhibition Assay
Details: pH 5; 22 °C
Description: HIV-1 protease was purified and refolded from E. coli inclusion bodies. The substrate used spans the p17-p24 processing site (R-V-S-Q-N-Y-P-I-V-Q-N-K) and was derivatized with biotin and fluorescein isothiocyanate (FITC) at the amino and carboxy termini. In the presence of HIV-l protease, the substrate is rapidly cleaved into two parts. The biotinylated amino terminal fragment binds to the avidin beads while the FITC-containing carboxy1 terminal fragment is removed through the membrane. […] The bound fluorescence is obtained by processing on an IDEXX Screen Machine. Determination of Ki values with this assay requires analysis under conditions in which substrate concentration resides substantially below Km and the inhibitor concentrations greatly exceeds the Ki value and the enzyme concentration.

SMILES | Ki
CCC(c1cccc(NC(=O)CCNC(=O)OC(C)(C)C)c1)c1c(O)c2ccc(OC)cc2oc1=O (centres undefined) [4-Hydroxy-3-[1-3-[[3-[(tert-butyloxycarbonyl)amino]-1-oxopropyl]amino]phenyl]propyl]-7-methoxycoumarin] | 0.17 µM
CCC(c1cccc(C(=O)N[C@H](C(=O)NCc2ccccn2)C(C)CC)c1)c1c(O)c2ccccc2oc1=O (some centres undefined) [3-[1-(4-Hydroxy-2-oxo-2H-1-benzopyran-3-yl)propyl]-N-[2-methyl-1-[[(2-pyridinylmethyl)amino]carbonyl]butyl]benzamide] | 0.4 µM
CCC(c1cccc(C(=O)NCc2nc3ccccc3[nH]2)c1)c1c(O)c2ccccc2oc1=O (centres undefined) [N-(1H-1,3-benzodiazol-2-ylmethyl)-3-[1-(4-hydroxy-2-oxo-2H-chromen-3-yl)propyl]benzamide] | 4.4 µM
CC(C)(C)OC(=O)NCCC(=O)Nc1cccc(C(c2c(O)c3ccccc3oc2=O)C2CC2)c1 (centres undefined) [tert-butyl N-[2-({3-[cyclopropyl(4-hydroxy-2-oxo-2H-chromen-3-yl)methyl]phenyl}carbamoyl)ethyl]carbamate] | 0.086 µM
